Results published in the supplement of paper PMC6045584.
± gives the standard deviation of the averaged measurements.

Assays:
[1] = compound: COc1cc2ncnc(Nc3ccc(F)c(Cl)c3)c2cc1NC(=O)/C=C/CN1CCCCC1; assay: surviving fraction relative to DMSO-only wells; higher = less growth inhibition; settings: exposure time: 5 days
In short: (§1)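 A line counted only if its three screens reached replicate Pearson r >0.7 and median Z' >0.3. Tumour cells in log phase were seeded at 250–500 per well in 384-well plates and, after 24 hours, kept in continuous contact with inhibitors at 0.5, 1, 5, 10, 50, 100, 500 and 1000 nM for five days. Surviving fraction was taken from CellTiter-Glo luminescence relative to the median of DMSO-only wells.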

DASATINIB = compound: Cc1nc(Nc2ncc(C(=O)Nc3c(C)cccc3Cl)s2)cc(N2CCN(CCO)CC2)n1 [DASATINIB]; assay: as above; settings: exposure time: 5 days
In short: as §1

Row | Test System | surviving fraction ([1]; 0.5 nM) | surviving fraction ([1]; 1 nM) | surviving fraction ([1]; 5 nM) | surviving fraction ([1]; 10 nM) | surviving fraction ([1]; 50 nM) | surviving fraction ([1]; 100 nM) | surviving fraction ([1]; 500 nM) | surviving fraction ([1]; 1000 nM) | surviving fraction (DASATINIB; 0.5 nM) | surviving fraction (DASATINIB; 1 nM) | surviving fraction (DASATINIB; 5 nM) | surviving fraction (DASATINIB; 10 nM) | surviving fraction (DASATINIB; 50 nM) | surviving fraction (DASATINIB; 100 nM) | surviving fraction (DASATINIB; 500 nM) | surviving fraction (DASATINIB; 1000 nM)
1 | 22RV1 PROSTATE | 1 ± 0.17 | 1.04 ± 0.099 | 0.977 ± 0.059 | 1 ± 0.087 | 1.03 ± 0.05 | 0.97 ± 0.063 | 1.02 ± 0.061 | 0.9 ± 0.045 | 1.15 ± 0.32 | 0.983 ± 0.09 | 1.1 ± 0.3 | 0.935 ± 0.097 | 1.01 ± 0.15 | 0.929 ± 0.056 | 1.04 ± 0.085 | 1.09 ± 0.16
2 | 93VU HEADNECK | 0.834 ± 0.065 | 0.8653 ± 0.005 | 0.651 ± 0.02 | 0.541 ± 0.12 | 0.465 ± 0.016 | 0.456 ± 0.034 | 0.353 ± 0.036 | 0.267 ± 0.025 | 0.779 ± 0.041 | 0.788 ± 0.054 | 0.829 ± 0.036 | 0.752 ± 0.053 | 0.276 ± 0.02 | 0.132 ± 0.016 | 0.0923 ± 0.0015 | 0.0923 ± 0.013
3 | 143B BONE | 1.03 ± 0.027 | 1.006 ± 0.005 | 1.01 ± 0.067 | 1.01 ± 0.033 | 1.02 ± 0.018 | 1.01 ± 0.03 | 0.957 ± 0.016 | 0.831 ± 0.04 | 1.04 ± 0.058 | 1.03 ± 0.025 | 1.01 ± 0.046 | 0.9835 ± 0.00071 | 0.8695 ± 0.005 | 0.806 ± 0.019 | 0.7575 ± 0.0035 | 0.75 ± 0.042
4 | A549 LUNG | 1.03 ± 0.089 | 0.985 ± 0.053 | 0.986 ± 0.08 | 0.962 ± 0.034 | 1.04 ± 0.066 | 1.02 ± 0.024 | 1 ± 0.044 | 1.02 ± 0.042 | 0.915 ± 0.0066 | 0.9003 ± 0.0076 | 0.879 ± 0.02 | 0.859 ± 0.018 | 0.858 ± 0.033 | 0.8223 ± 0.0025 | 0.646 ± 0.028 | 0.631 ± 0.012
5 | ASKA SYNOVIAL | 1.11 ± 0.094 | 1.23 ± 0.051 | 1.15 ± 0.038 | 1.24 ± 0.14 | 1.3 ± 0.068 | 1.29 ± 0.04 | 0.959 ± 0.021 | 1.12 ± 0.019 | 0.928 ± 0.024 | 0.904 ± 0.051 | 0.974 ± 0.061 | 0.936 ± 0.046 | 0.985 ± 0.085 | 0.94 ± 0.032 | 0.919 ± 0.019 | 0.905 ± 0.036
6 | BT20 BREAST | 1.08 ± 0.071 | 1 ± 0.12 | 0.895 ± 0.015 | 0.934 ± 0.13 | 1.05 ± 0.028 | 0.996 ± 0.13 | 1.13 ± 0.045 | 0.809 ± 0.16 | 0.767 ± 0.056 | 0.729 ± 0.02 | 0.699 ± 0.026 | 0.739 ± 0.11 | 0.774 ± 0.13 | 0.798 ± 0.061 | 0.752 ± 0.034 | 0.705 ± 0.036
7 | BT549 BREAST | 0.991 ± 0.049 | 1.1 ± 0.15 | 1.02 ± 0.17 | 1.06 ± 0.13 | 1 ± 0.037 | 0.927 ± 0.14 | 0.727 ± 0.058 | 0.473 ± 0.08 | 0.968 ± 0.16 | 0.937 ± 0.12 | 0.774 ± 0.12 | 0.669 ± 0.056 | 0.395 ± 0.037 | 0.236 ± 0.018 | 0.113 ± 0.012 | 0.114 ± 0.037
8 | C33A CERVIX | 0.793 ± 0.044 | 0.93 ± 0.15 | 0.899 ± 0.017 | 0.802 ± 0.085 | 0.517 ± 0.051 | 0.428 ± 0.022 | 0.358 ± 0.019 | 0.296 ± 0.02 | 0.869 ± 0.078 | 0.772 ± 0.044 | 0.521 ± 0.034 | 0.419 ± 0.008 | 0.219 ± 0.026 | 0.182 ± 0.0036 | 0.157 ± 0.0025 | 0.172 ± 0.0091
9 | CADOES1 SOFT TISSUE | 0.985 ± 0.058 | 0.938 ± 0.14 | 1.03 ± 0.16 | 0.873 ± 0.046 | 0.884 ± 0.07 | 0.896 ± 0.047 | 0.891 ± 0.018 | 0.7 ± 0.031 | 1.04 ± 0.07 | 1.01 ± 0.034 | 0.91 ± 0.042 | 0.939 ± 0.11 | 1.01 ± 0.079 | 0.973 ± 0.081 | 1.05 ± 0.099 | 1.14 ± 0.1
10 | CAL51 BREAST | 0.985 ± 0.05 | 1.03 ± 0.076 | 1 ± 0.086 | 0.968 ± 0.031 | 1.03 ± 0.08 | 1.02 ± 0.1 | 0.9793 ± 0.0063 | 0.848 ± 0.027 | 0.838 ± 0.069 | 0.8707 ± 0.0049 | 0.832 ± 0.047 | 0.737 ± 0.046 | 0.491 ± 0.036 | 0.386 ± 0.025 | 0.248 ± 0.019 | 0.238 ± 0.033
